Source: PubChem BioAssay (NCI)
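Five concentrations, 48 hours, 96-well plates. GI50: concentration for 50% inhibition of growth. TGI marks complete inhibition of growth.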

Legend:
Assay in all cases: NCI-60 cell line screen, 48 h
[1] = test system: KM12 colon
[2] = test system: T-47D breast
[3] = test system: NCI-H460 lung
[4] = test system: SK-MEL-5 melanoma
[5] = test system: HL-60(TB) leukemia
[6] = test system: HCC-2998 colon
[7] = test system: SN12C renal
[8] = test system: BT-549 breast
[9] = test system: NCI-H522 lung
[10] = test system: RPMI-8226 leukemia

Compound	GI50 [1] [µM]	TGI [1] [µM]	GI50 [2] [µM]	TGI [2] [µM]	GI50 [3] [µM]	TGI [3] [µM]	GI50 [4] [µM]	TGI [4] [µM]	GI50 [5] [µM]	TGI [5] [µM]	GI50 [6] [µM]	TGI [6] [µM]	GI50 [7] [µM]	TGI [7] [µM]	TGI [8] [µM]	TGI [9] [µM]	TGI [10] [µM]	GI50 [8] [µM]	GI50 [9] [µM]	GI50 [10] [µM]
COc1cc(NC(C)CCCN)c2ncccc2c1Sc1ccc(Cl)cc1 (stereo not given)	1.77	3.27	1.77	3.34	1.8	3.22	1.72	3.09	2.05	3.88	1.75	3.17	1.62	3.06	–	–	–	–	–	–
COc1cc2c(cc1O)C(c1cc(O)c(O)c(OC)c1)C(O)(C(=O)O)C(CO)C2O (stereo not given)	–	> 100	–	> 100	–	> 100	–	> 100	–	–	–	> 100	–	32.6	> 100	> 100	> 100	–	–	–
NCCN1C(=O)c2ccccc2C1(O)c1ccc(Cl)cc1 (stereo not given)	–	30.5	–	37.8	–	30.4	–	31.3	–	70.8	–	–	–	> 100	> 100	27.9	39.7	–	–	–
COc1cc2c(cc1OC)[C@@H]([C@H](O)c1ccccc1)NCC2	–	> 100	–	–	–	> 100	–	> 100	–	> 100	–	> 100	–	> 100	–	> 100	> 100	–	–	–
Cc1ccc2c(CC(=O)O)cc(=O)oc2c1	–	> 100	–	–	–	> 100	–	> 100	–	> 100	–	> 100	–	> 100	–	> 100	> 100	–	–	–
O=C(CC1C(=O)Nc2ccccc2S1(=O)=O)Nc1cccc(Cl)c1 (stereo not given)	–	–	–	–	–	31.8	–	35.8	–	44.1	–	32.1	–	29.5	–	31.7	24.1	–	–	–
C[n+]1c(/C=C/c2ccc(/C=N/NC(=O)c3ccc(C(=O)N/N=C/c4ccc(/C=C/c5cn6ccccc6[n+]5C)cc4)cc3)cc2)cn2ccccc21	–	> 100	–	> 100	–	> 100	–	> 100	–	67.4	–	> 100	–	> 100	> 100	–	> 100	–	–	–
O=C(Nc1cccc(-n2cc(-c3ccncc3)c(-c3ccc(O)c(Cl)c3)n2)c1)c1ccc(Cl)c(Cl)c1	5.44	> 100	5.36	> 100	3.91	> 100	3.9	18.7	–	–	40.6	> 100	23.1	> 100	> 100	74.4	> 100	10.4	4.13	3.46
COc1ccc(-c2nnc(Nc3nc(O)c(C4=c5cc(F)ccc5=NC4=O)s3)o2)cc1	43.1	> 100	93.2	> 100	34.2	> 100	28.7	> 100	–	–	84.3	> 100	47	> 100	> 100	> 100	> 100	36.5	33.9	59.1
